The values below come from paper PMC3409115, “Diverse Inhibitor Chemotypes Targeting Trypanosoma cruzi CYP51” (PLoS Neglected Tropical Diseases, 2012).

By EC50 is commonly meant the concentration giving half of the maximal effect.

T1 sequence (Q7Z1V1 15-481, looked up, natural form): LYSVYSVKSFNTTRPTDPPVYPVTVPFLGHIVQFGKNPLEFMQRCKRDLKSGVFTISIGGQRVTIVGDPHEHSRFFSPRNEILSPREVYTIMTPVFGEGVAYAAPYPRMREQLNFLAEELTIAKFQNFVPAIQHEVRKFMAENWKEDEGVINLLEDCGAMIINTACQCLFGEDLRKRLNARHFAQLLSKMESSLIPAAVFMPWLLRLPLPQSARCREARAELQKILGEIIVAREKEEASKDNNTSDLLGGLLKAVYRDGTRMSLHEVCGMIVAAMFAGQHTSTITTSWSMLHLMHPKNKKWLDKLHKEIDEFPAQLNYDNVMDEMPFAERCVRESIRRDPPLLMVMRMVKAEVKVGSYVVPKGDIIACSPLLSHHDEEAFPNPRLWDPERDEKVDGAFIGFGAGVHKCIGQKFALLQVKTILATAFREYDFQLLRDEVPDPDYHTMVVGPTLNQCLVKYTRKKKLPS

For the first data set, the system named is host cell (skeletal myoblasts, bovine embryo skeletal muscle or C2C12). Briefly: Host cell toxicity in the cross-validation assay. In kind it is cell-based. Conditions: host cells in cross-validation assay, up to 10 µM. As to the method:
(§1) Compound cross-validation in T. cruzi infected skeletal myoblasts (bovine embryo skeletal muscle or C2C12 lineage) was performed according to the protocol adapted from Engel and co-authors. Compounds stored as 10 mM stocks in DMSO were freshly diluted immediately prior to use. […] To prepare plates for the assay, skeletal myoblasts cultured in […] flasks were washed once with phosphate buffered saline (PBS) and then incubated with 0.25% trypsin in PBS for 1–3 minutes for detachment. The trypsin solution was removed and myoblasts were released from the flask bottom. Fresh medium was added and cell concentration was determined using a Neubauer hemocytometer. Myoblasts in 50 µl of culture medium were transferred to the clear-bottom wells of black 96-well plates (Greiner Bio-One, #655090) at a density of 1500 cells/well and infected with 50 µl trypomastigote culture at 7500 parasites/well (1∶5 ratio). The cells were allowed to adhere and spread for 24 h in the incubator before the media was removed and 100 µl of fresh medium containing 0, 0.04, 0.12, 0.37, 1.10, 3.30 or 10 µM of test compound was added to each well, followed by 72 h incubation at 37°C in an atmosphere of 5% CO2. Posaconazole was used as a positive control at the same concentrations as the test compounds. The cells were then fixed by adding 100 µl/well of 8% formaldehyde in PBS, resulting in a 4% working concentration of formaldehyde. To stain the nucleus of the host cell and the nucleus and kinetoplast of parasites, cell membranes were first permeabilized by washing once with 100 µl of 0.1% Triton X-100 in PBS, then treated for 1 h with 0.2 µg/ml of the fluorescent DNA dye, 4,6-diamidino-2-phenylindole (DAPI), followed by one wash with PBS. The fixed plates were kept at 4°C and protected from light until images were acquired.
(§2) Plates were allowed to equilibrate to room temperature and images were acquired by the IN Cell Analyzer 2000 (GE Healthcare) with a 20× objective, 5 fields per well, with 350/50 nm and 460/40 nm fluorescent excitation and emission filters. In the absence of drug cytotoxicity, at least 800 cells were imaged and counted per well. The images were processed and analyzed by IN Cell Analyzer Developer 1.6 software. The size parameters used to segment host and parasite organelles were 125 µm^2 for host nucleus, and 1–2 µm^2 for parasite nucleus/kinetoplast. Since DAPI also strongly stains host heterochromatin regions that display as shapes resembling parasites ( Figure 3 ), particles co-localized to host nuclei were excluded from quantification, while parasite aggregates near the host nucleus were counted as infected cells. Numbers of host cells and intracellular amastigotes were determined based on host cell and parasite nucleus and parasite kinetoplast quantification, providing a measure of growth inhibition during the first 72 h of post-infection treatment compared to untreated controls.
^aToxicity was assessed as the highest percentage of host cell growth inhibition caused by compound treatment. Scores are assigned as 1-<20%; 2-21-30%; 3- 31-40%; 4-41-50% and 5->50% growth inhibition.
On to `Cc1ccc2nc(NC(=O)C3CCN(S(=O)(=O)c4cccnc4)CC3)sc2c1` [Compound 39], for which the “Toxicity score (highest percentage of host cell growth inhibition)” value was 1 (1-<20%). As for `O=C(/C(=C/c1ccc(F)cc1)n1cncn1)c1ccc(Cl)cc1Cl` [Compound 43], the “Toxicity score (highest percentage of host cell growth inhibition)” value is 3 (3- 31-40%).

Turning to `C/C(=N\OC(=O)c1c(-c2ccccc2Cl)noc1C)c1ccncc1` [Compound 33], the “Toxicity score (highest percentage of host cell growth inhibition)” value is reported as 3 (3- 31-40%).

A further data set concerns the target T1, T. cruzi CYP51 (Trypanosoma cruzi, UniProt Q7Z1V1).
T1 construct: had the first 21 residues upstream of K22 replaced with the fragment MAKKKKK; His6 (C); made in house
The data set can be described thus: HTS spectral-mode binding screen, type II difference spectra scored 0-5. To be noted: spectral mode, four serial dilutions 2 µM to 12.5 µM, 2 µM CYP51.
As to `COc1cccc(/C=C/c2ccncc2)c1OC` [Compound 24], the HTS binding score turned out to be 2. Take `Cc1ccc(C)c(CN2CCCCC2c2cccnc2)c1` (stereo not shown) [Compound 48]: the HTS binding score is given as 4.

With `CC(C)(C)NC(=O)c1cccc(NC(=O)c2ccc3c(c2)C(=O)N(Cc2cccnc2)C3=O)c1` [Compound 176], the HTS binding score turned out to be 4. Same read-out and setting: the value for `COc1cc2c(cc1OC)C(C(=O)N1CCC(Cc3ccccc3)CC1)C(c1cccnc1)N(C)C2=O` (stereo not shown) [Compound 185] was 4; that for `CCc1cc2c(cc3c(=O)n(CC(=O)NCc4cccnc4)ncn32)s1` [Compound 118] was 4; that for `COCc1cc(C)nc2c1C(=O)NC(c1cccnc1)N2Cc1ccccc1` (stereo not shown) [Compound 124] was 4. On the same count and under the same terms, the value for `COc1ccc(-c2cc(C(=O)NCc3cccnc3)[nH]n2)cc1` [Compound 68] was 4. As for `CN1C(=O)c2[nH]nc(-c3ccc(F)cc3)c2C1c1cccnc1` (stereo not shown) [Compound 67], the HTS binding score was 5. `CC1=C(C(=O)OC2CCCC2)C(c2ccncc2)C2=C(O)CC(C)(C)CC2=N1` (stereo not shown) [Compound 129] displayed an HTS binding score of 4. With `O=C(CCc1nc(-c2ccc(Cl)cc2)no1)Nc1cccnc1` [Compound 86], the HTS binding score amounted to 4. With `O=C(Cc1cccc(O)c1)Nc1cc(-c2ccncc2)cnc1O` [Compound 80], the HTS binding score is on record as 4. Still for that read-out and setting: the value for `COc1cccc(-c2noc(C(=O)NCCCn3ccnc3)n2)c1` [Compound 84] was 4. The same measure, in the same setting: the value for `CCCCNC(=O)c1cc(-c2ccncc2)nc2ccccc12` [Compound 63] was 5; that for `COc1ccc(-c2noc(CSc3nnc(-c4ccncc4)n3CC(C)C)n2)cc1OC` [Compound 174] was 4.

The compound `CCOC(=O)C1=C(C)N(C)C(C)=C(C(=O)OCC)C1c1ccncc1` [Compound 104] returned an HTS binding score of 5. The same measure, in the same setting: next, `Cc1ccc(C)c(OCCCCn2ccnc2)c1` [Compound 17]: 4; `O=C(CSCc1c(Cl)cccc1Cl)NCc1cccnc1` [Compound 102]: 4. As to `Cn1c(SCc2nc(-c3ccc(Cl)cc3)no2)nnc1-c1ccncc1` [Compound 134], the HTS binding score was 5. The same measure, in the same setting: next, `CC1=C(C(=O)Nc2ccccc2)C(c2cccnc2)C(C#N)=C(SCC(=O)Nc2ccc(F)cc2)N1` (stereo not shown) [Compound 184]: 5; `COC(=O)C1=C(N)Oc2cc(C)n(CCCn3ccnc3)c(=O)c2C1c1ccc(Cl)cc1` (stereo not shown) [Compound 175]: 4; `O=C(Nc1ccncc1)c1ccc(NS(=O)(=O)c2cccc(Cl)c2)cc1` [Compound 135]: 4.

`Cc1ccc(S(=O)(=O)NCCCOC(=O)Nc2ccncc2)cc1` [Compound 110] yielded an HTS binding score of 5. The same measure, in the same setting: next, `Cc1cc(Cl)ccc1OCCCC(=O)NCc1ccncc1` [Compound 78]: 4; `O=C(NCc1ccncc1)C(Sc1ccccc1)c1ccccc1` (stereo not shown) [Compound 93]: 4; `O=C(c1cc(-c2ccncc2)nc2ccccc12)N1CCCCC1` [Compound 76]: 5. On the same count and under the same terms, next, `N=C(NOS(=O)(=O)c1ccc(Cl)cc1)c1ccncc1` [Compound 71]: 5. Still for that read-out and setting: the value for `COc1ccc(NC(=O)Nc2ccc(Cc3ccncc3)cc2)cc1` [Compound 91] was 5; that for `C/C(=N\OC(=O)c1c(-c2ccccc2Cl)noc1C)c1ccncc1` [Compound 115] was 5; that for `CC(C)c1nnc(N2C(=O)c3oc4ccccc4c(=O)c3C2c2cccnc2)s1` (stereo not shown) [Compound 144] was 4.

For the compound `O=C(NCCc1ccncc1)Nc1ccc(Cl)c(Cl)c1` [Compound 70], the HTS binding score is given as 4. Same read-out and setting: the value for `Cc1ccc(Sc2c(C(=O)NCc3cccnc3)[nH]c3ccccc23)cc1` [Compound 123] was 4; that for `CCOC(=O)c1cc(-c2ccc(C)cc2)n(CCC(=O)NCc2cccnc2)c1C` [Compound 146] was 5; that for `COc1cc(OC)cc(-c2nc3n(n2)C(c2ccncc2)C2=C(O)CC(C)(C)CC2=N3)c1` (stereo not shown) [Compound 162] was 4.

As for `O=C(NCc1cccnc1)/C(=C\c1cccc(Oc2ccccc2)c1)S(=O)(=O)c1ccccc1` [Compound 178], the HTS binding score came to 4. On the same count and under the same terms, next, `O=C(Cn1ccnc1)c1ccc(Cl)cc1Cl` [Compound 26]: 2; `O=S(=O)(Nc1ccc(Cc2ccncc2)cc1)c1ccc(Br)cc1` [Compound 142]: 4. On the same count and under the same terms, the value for `CC1=NN(C(=O)COc2ccccc2C)C(O)(c2cccnc2)C1` (stereo not shown) [Compound 83] was 4; that for `CC(C)(C)Nc1c(-c2ccncc2)nc2ccc(Br)cn12` [Compound 105] was 4. Same read-out and setting: the value for `Cc1ccc(NC(=O)C23CC4CC(C2)CC(n2cncn2)(C4)C3)c(C)c1` [Compound 111] was 5; that for `COc1ccc(-c2nc(CSCC(=O)NCc3cccnc3)c(C)o2)cc1` [Compound 133] was 4; that for `Cn1c(=O)c2c(nc(NCc3cccnc3)n2Cc2cccc3ccccc23)n(C)c1=O` [Compound 161] was 4. For the compound `O=C(c1ccc(Cl)cc1Cl)C(c1cccnc1)C(O)C(Cl)(Cl)Cl` (stereo not shown) [Compound 151], the HTS binding score was determined as 5.

The same data set, now with this note: type II difference spectra scored 0-5; second highest rated hit compound cluster.
Compound `CCO/C(O)=C1/C(C)=NC2=C(C(=O)CC(c3ccccc3)C2)C1c1cccnc1` (stereo not shown) [Compound 28] registered an HTS binding score of 4.

The subject of the next data set is T. cruzi-infected skeletal myoblasts (intracellular amastigotes). The data set can be described thus: Hit cross-validation in T. cruzi-infected mammalian cells (image-based assay). The class given is cell-based, Trypanosoma cruzi. Conditions: Trypanosoma cruzi, Myoblast, 72 h, T. cruzi-infected myoblasts, 72 h treatment; read-out: EC50 against T. cruzi parasites in HTS assay used to rank order the hits. As to the method:
Bovine embryo skeletal muscle cells or mouse C2C12 myoblasts (ATCC#CRL-1772) used in the cross-validation assay, were cultivated respectively in RPMI 1640 medium supplemented with 5% horse serum and Dulbecco's Modified Eagle's Medium H-21 containing 4.5 g/l glucose (DMEM H-21) (Cell Culture Facility, UCSF), supplemented with 5% fetal bovine serum (FBS) (Sigma Chemical Co., St. Louis, MO, USA), 25 mM HEPES, 2 mM L-glutamine, 100 U/ml penicillin, 100 µg/ml streptomycin. T. cruzi CAI-72 trypomastigotes were obtained from supernatant of infected cultures 4 to 7 days post-infection. Cultures were maintained at 37°C in an atmosphere of 5% CO2. To harvest parasites, the supernatant of infected cultures containing released trypomastigotes was collected and centrifuged at 600 rpm for 5 min to remove cell debris; the pellet was then discarded and the trypomastigotes remaining in the media were concentrated by spinning the culture tubes at 3300 rpm for 15 minutes. The parasite pellet was re-suspended in 2–5 ml of fresh media. Trypomastigote concentration was determined using a Neubauer hemocytometer.
as §1
as §2, with “cells.” for “cells. Numbers of host cells and intracellular amastigotes were determined based on host cell and parasite nucleus and parasite kinetoplast quantification, providing a measure of growth inhibition during the first 72 h of post-infection treatment compared to untreated controls.”
In the case of `CCO/C(O)=C1/C(C)=NC2=C(C(=O)CC(c3ccccc3)C2)C1c1cccnc1` (stereo not shown) [Compound 28], the EC50 stood at 5 µM. For the compound `Cc1ccc(C)c(OCCCCn2ccnc2)c1` [Compound 17], the EC50 was 2.36 µM.

Staying with this data set, now noted: Trypanosoma cruzi, Myoblast, 72 h, read-out: EC50 against T. cruzi parasites in HTS assay used to rank order the hits.
`Cc1ccc2nc(NC(=O)C3CCN(S(=O)(=O)c4cccnc4)CC3)sc2c1` [Compound 39]: the EC50 was determined as 7.64 µM. Same read-out and setting: the value for `O=C(/C(=C/c1ccc(F)cc1)n1cncn1)c1ccc(Cl)cc1Cl` [Compound 43] was 7.8 µM. Still for that read-out and setting: the value for `COc1cccc(/C=C/c2ccncc2)c1OC` [Compound 24] was 2.98 µM; that for `Cc1ccc(C)c(CN2CCCCC2c2cccnc2)c1` (stereo not shown) [Compound 48] was 8.24 µM. On the same count and under the same terms, next, `C/C(=N\OC(=O)c1c(-c2ccccc2Cl)noc1C)c1ccncc1` [Compound 33]: 6.78 µM.

With `CCCC/N=C(\S)N1CCn2cccc2C1c1cccnc1` (stereo not shown) [Compound 30], the EC50 is 6.33 µM. The same measure, in the same setting: the value for `O=C(Cn1ccnc1)c1ccc(Cl)cc1Cl` [Compound 26] was 4.53 µM.
